Results from US20110105626A1, “USE OF CYCLOHEXANEHEXOL DERIVATIVES FOR THE TREATMENT OF POLYGLUTAMINE DISEASES” (priority 2007, published 2011).
Entries after “also recorded” stand apart in the source; their conditions may differ.

Tests used:
Type in all cases: cell-based
[1] = target: T1, Htt103Q-EGFP (Homo sapiens, UniProt P42858); assay: Western blot of poly-Q protein expression in inducible PC-12 cells, normalized to GAPDH; conditions: for Htt103Q-EGFP protein expression level (western blot): cystamine bitartrate treatment
T1 construct: expressed in transfected cells; host or cells: PC-12 cells, stably transfected, pIND construct induced with 5 µM ponasterone
T1 sequence (P42858 with tags, fused parts or gaps limits assumed): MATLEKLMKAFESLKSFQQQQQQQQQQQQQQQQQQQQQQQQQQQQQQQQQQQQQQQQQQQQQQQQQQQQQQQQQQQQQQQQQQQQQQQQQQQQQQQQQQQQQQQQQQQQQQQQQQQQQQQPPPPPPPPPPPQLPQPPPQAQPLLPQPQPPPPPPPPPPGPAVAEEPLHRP
Protocol: (§1) Inducible PC-12 cells. PC-12 cells stably transfected with pIND constructs containing HttQ103P-EGFP. The cells upon stimulation with 5 μM ponasterone for 48 hrs express poly-Q protein with a EGFP carboxy-terminal epitope tag (Apostol, B. et al., PNAS 100, 5950-5955, 2003). Chemical Compound screen in PC-12 cells. Cells were plated in 6 well plates and grown overnight, then treated with 5 μM ponasterone for 48 hrs in the presence and absence of cystamine bitartrate or scyllo-inositol. Both were dissolved in water, and added directly to cultures at a final concentration of 1-50 μM and aggregation calculated. Visual counts of aggregates and EGFP-positive cells were performed using fluorescent microscopy. At least 300 cells were counted from 5-6 fields in three wells in each of three independent experiments. Aggregation is expressed as the percentage of cells with aggregates versus total number of EGFP-positive cells. Chemical compound was assessed for cellular toxicity by evaluating cell morphology, trypan blue exclusion and cell viability. Protein Expression. Cells were plated in 6 well plates and grown overnight, then treated with 5 μM ponasterone for 48 hrs in the presence and absence of cystamine bitartrate or scyllo-inositol. Cells were lysed in hypotonic solution containing 20 mM HEPES ph 7.5, 5 mM NaCl, 10 mM NaF, 2 mM EDTA, 1% Nonidet P-40, 1 mM sodium, orthovanadate, and protease inhibitors. Protein concentration was determined using the Bradford assay and 100 μg of protein was used for western blotting. Primary antibody to poly-glutamine was used to detect HttQ103, while GAPDH was used as an internal house-keeping standard. Westerns were scanned and densitometry was used to quantify PolyQ expression.
In order to examine changes in Htt103Q-EGFP protein concentration as a function of scyllo-inositol treatment, western blots were used (FIG. 3, 4). Cells were treated as above and then harvested for western blot analyses using a poly-glutamine specific antibody, and normalized to the housekeeping protein, GAPDH (FIG. 3). Blots were scanned and densitometry of each lane performed, to normalize for variations in protein loading pixels were normalized to those of GAPDH.

[2] = target: T2, HttQ103P-EGFP (Homo sapiens, UniProt P42858); assay: Aggregation of HttQ103P-EGFP in inducible PC-12 cells (visual counts by fluorescent microscopy)
T2 construct: expressed in transfected cells; host or cells: PC-12 cells, stably transfected, pIND construct induced with 5 µM ponasterone
T2 sequence (P42858 with tags, fused parts or gaps limits assumed): as above
Protocol: as §1
A hallmark of polyglutamine diseases is the accumulation of intracellular aggregates in the cytosol and nucleus of neurons. Therefore, the inducible PC-12 cell lines were utilized to address the question of inhibition of HttQ103P-EFGP aggregation using scyllo-inositol and a previously identified aggregation inhibitor, cystamine bitartrate. Aggregates are readily distinguished from soluble Htt, by intense small aggregate formation versus diffuse cellular staining pattern of soluble Htt (FIG. 1). Simultaneously with induction of HttQ103P-EFGP expression, scyllo-inositol was added to the cells in a final concentration range from 0-100 μM, with 50 μM cystamine bitartrate as a positive control. Cells were photographed using fluorescence microscopy and total cells expressing EFGP counted, and cells containing aggregates. Efficacy of treatment was determined by a reduction in the percentage of cells containing EGFP aggregates (FIG. 1, 2).

[3] = system: PC-12 cells
Protocol: as §1, with “Visual counts of aggregates and EGFP-positive cells were performed using fluorescent microscopy.” left out, “Protein Expression. Cells were plated in 6 well plates and grown overnight, then treated with 5 μM ponasterone for 48 hrs in the presence and absence of cystamine bitartrate or scyllo-inositol. Cells were lysed in hypotonic solution containing 20 mM HEPES ph 7.5, 5 mM NaCl, 10 mM NaF, 2 mM EDTA, 1% Nonidet P-40, 1 mM sodium, orthovanadate, and protease inhibitors.” left out, “Primary antibody to poly-glutamine was used to detect HttQ103, while GAPDH was used as an internal house-keeping standard.” left out
A hallmark of polyglutamine diseases is the accumulation of intracellular aggregates in the cytosol and nucleus of neurons. […] Cells were photographed using fluorescence microscopy and total cells expressing EFGP counted, and cells containing aggregates. […]

SMILES | Htt103Q-EGFP protein expression level (western blot) [1] | Htt103Q-EGFP protein expression level (western blot) ([1]; listed as Cystamine bitratrate) | Aggregation (percentage of cells with aggregates versus total EGFP-positive cells) ([2]; 50 μM cystamine bitartrate as positive control, added simultaneously with induction) | Concentrations at which poly-Q (Htt) protein is decreased / mutant Htt degradation is enhanced ([1]; inducible PC-12 cells, western blot) | Htt103Q-EGFP protein concentration (western blot, densitometry) ([1]; scyllo-inositol concentration series, normalized to GAPDH) | poly-Q protein expression ([1]; scyllo-inositol up to 10 μM concentration) | Cell viability, trypan blue exclusion assay [3] | Morphological examination of cells for changes associated with toxicity [3] | Concentrations at which aggregation of poly-Q repeat Htt is decreased ([2]; inducible PC-12 cells) | Lowest concentration with significant decrease in the formation of aggregates ([2]; inducible PC-12 cells, FIG. 2) | Aggregation (percentage of cells with aggregates versus total EGFP-positive cells) ([2]; scyllo-inositol 0-100 μM added simultaneously with induction, 5 μM ponasterone 48 hrs) | Aggregation (percentage of cells with aggregates versus total EGFP-positive cells) ([2]; scyllo-inositol 0-100 μM added simultaneously with induction, 5 μM ponasterone 48 hrs, listed as Scyllo-inositol)
NCCSSCCN.O=C(O)C(O)C(O)C(=O)O (stereo not drawn) [cystamine bitartrate, reference compound] | no effect on Htt103 cellular protein concentration; also recorded: did not change protein expression levels | did not alter poly-Q protein expression | inhibits aggregate formation; also recorded: aggregated poly-Q is decreased; also recorded: decreased aggregation of poly-Q |  |  |  |  |  |  |  |  | 
O[C@H]1[C@H](O)[C@@H](O)[C@H](O)[C@@H](O)[C@@H]1O [scyllo-inositol] |  |  |  | 25 to 100 µM | concentration dependant decrease in Htt protein; also recorded: decreased the protein concentration | did not alter poly-Q protein expression | no effect on cell viability | did not detect changes associated with toxicity | 1 to 100 µM | 1 µM | concentration dependent effect of decreased aggregation | concentration dependent decrease in the formation of aggregates
